Assay type in all cases: physicochemical
Data set [1] in a line: Relaxivity measurements at 3.0 T (whole body MRI scanner, 37 °C) in water and human plasma. The note with it: normalized to Gd, average ± standard deviation. As for the experimental part: Relaxivity Measurements at 3.0 T
Relaxivity measurements at 3.0 T were performed with a whole body 3.0 T MRI Scanner (Philips Intera, Philips Healthcare, Hamburg, Germany) using a knee-coil (SENSE-Knee-8, Philips Healthcare, Hamburg, Germany). The sample tubes (CryoTubetm Vials, Thermo Scientific 1.8 mL, Roskilde, Denmark) were positioned in 3 rows of 4 and 5 tubes in a plastic holder in a box filled with water. The temperature was adjusted to 37° C. For the MRI sequence the shortest possible echo-time (TE) with 7.46 milliseconds was used. The inversion times were chosen to optimize the sequence to measure T1 values corresponding to the estimated T1 range of all relaxation times of contrast media containing solutions. The following inversion times (TIs) were applied: 50, 100, 150, 200, 300, 500, 700, 1000, 1400, 2100, 3200, and 4500 milliseconds. The sequence was run with a constant relaxation delay of 3.4 seconds after the registration of the last echo (variable TR in the range from 3450 to 7900 milliseconds). For details of the fit procedure, see Rohrer et. al. (Invest. Radiol. 2005; 40, 11: 715-724). The experimental matrix of the phantom measurement was 320×320.
The relaxivities were evaluated using three different concentrations of each compound (3 concentrations between 0.05 and 2 mM).
The T1 relaxation times of Example compounds were measured in water and human plasma. Human plasma preparation: For each experiment fresh blood was taken from a volunteer using 10 mL citrate-tubes (Sarstedt S-Monovette 02.1067.001, 10 mL, Citrate). The 10 mL citrate-tubes were carefully inverted 10 times to mix blood and anticoagulant and centrifuged for 15 minutes at 1811 g at room temperature (Eppendorf, Centrifuge 5810R).
The relaxivities ri (where i=1, 2) were calculated on the basis of the measured relaxation rates Ri in water and plasma: Ri=Ri(0)+ri[CGd], where Ri(0) represent the relaxation rate of the respective solvent and CGd the concentration of the compound normalized to the Gadolinium (Table 2).

Data set [2] is described as follows: Water solubility (exploratory, 10 mM Tris-HCl, 20 °C). The note with it: water (10 mM Tris-HCl buffer), pH 7.4. As for the experimental part:
The exploratory water solubilities of the compounds were determined at room temperature (20° C.) in 0.5 mL buffer solution (10 mM Tris-HCl) in the microcentrifuge tubes (Eppendorf, 2.0 mL safe-lock caps). The solid compounds were added stepwise to the buffer solution. The suspension was mixed using a shaker (Heidolph Reax 2000) and treated 5 min in an ultrasound bath (Bandelin, Sonorex Super RK255H).

Data set [3] is described as follows: Relaxivity measurements at 1.4 T (MiniSpec mq60, 60 MHz, 37 °C) in water and human plasma. As to conditions: 1.41 T, normalized to Gd. The procedure: Relaxivity Measurements at 1.4 T
Relaxivity measurements at 1.41 T were performed using a MiniSpec mq60 spectrometer (Bruker Analytik, Karlsruhe, Germany) operating at a resonance frequency of 60 MHz and a temperature of 37° C. The T1 relaxation times were determined using the standard inversion recovery (IR) method with a fixed relaxation delay of at least 5×T1. The variable inversion time (TI) was calculated automatically by the standard software of the MiniSpec mq60 (8 steps). The T2 measurements were done by using a Carr-Purcell-Meiboom-Gill (CPMG) pulse sequence, applying a relaxation delay of at least 5×T1.
Each relaxivity measurement was performed using three different Gd concentrations (3 concentrations between 0.05 and 2 mM). The T1 and T2 relaxation times of the example compounds 1 to 10 were measured in different media for example in water and human plasma. Human plasma preparation: For each experiment fresh blood was taken from a volunteer using 10 mL citrate-tubes (Sarstedt S-Monovette 02.1067.001, 10 mL, Citrate). The 10 mL citrate-tubes were carefully inverted 10 times to mix blood and anticoagulant and centrifuged for 15 minutes at 1811 g at room temperature (Eppendorf, Centrifuge 5810R).
The relaxivities ri (where i=1, 2) were calculated on the basis of the measured relaxation rates Ri in water and plasma: Ri=Ri(0)+ri[CGd], where Ri(0) represent the relaxation rate of the respective solvent and CGd the concentration of the compound normalized to the Gadolinium. The Gadolinium concentrations of the investigated solutions were verified by Inductively Coupled Plasma Mass Spectrometry (ICP-MS Agilent 7500a, Waldbronn, Germany).

The nature of data set [4]: Dynamic CT diffusion phantom study (dialysis cassette in fetal bovine serum). As to conditions: dialysis cassette 20,000 MWCO, 20 mmol Gd/L, CT signal over 30 h. The procedure:
The described dynamic CT diffusion study compares the ability of Examples 1-10 and Reference compounds 1 and 4 to pass a semipermeable membrane (20 kDa). A 128-row clinical CT device (SOMATOM Definition, 128; Siemens Healthcare, Forchheim, Germany) was used to monitor the diffusion through a semipermeable membrane at 100 kV and 104 mA. Single measurements were performed at 0 min, 1 min, 2 min, 3 min, 5 min, 10 min, 15 min, 20 min, 30 min, 45 min, 60 min, 2 h, 3 h, 5 h, 7 h, 22 h, 24 h, 30 h after placing the dialysis cassette (Slide-A-Lyser, 20,000 MWCO, 0.1-0.5 mL Capacity, Thermo Scientific, Roskilde, Denmark) filled with contrast agent in fetal bovine serum solution (FBS, Sigma, F7524). The images were reconstructed with a slice thickness of 2.4 mm and a B30 convolution kernel. The used concentration in the dialysis cassettes of the investigated Examples 1-10 and Reference compounds 1 and 4 was 20 mmol Gd/L.
The imaging results for all investigated Examples and the Reference compounds 1 and 4 for the time points 0 min and 30 h after placing the cassettes in the FBS solution are depicted in FIG. 1. For image analysis, regions of interest were manually drawn on 1 centrally located slice for each time point (a representative measurement region is indicated in FIG. 1: Image RC1).

SMILES strings stand for the structures.

The results in this text go back to US10975060B2, “High relaxivity gadolinium chelate compounds for use in magnetic resonance imaging” (BAYER PHARMA AKTIENGESELLSCHAFT, priority 2016, dated 2021).

In data set [1], `COCCN(CC(=O)NCC(CNC(=O)CN(CCOC)C(=O)CN1CCN(CC(=O)[O-])CCN(CC(=O)[O-])CCN(CC(=O)[O-])CC1)(CNC(=O)CN(CCOC)C(=O)CN1CCN(CC(=O)[O-])CCN(CC(=O)[O-])CCN(CC(=O)[O-])CC1)CNC(=O)CN(CCOC)C(=O)CN1CCN(CC(=O)[O-])CCN(CC(=O)[O-])CCN(CC(=O)[O-])CC1)C(=O)CN1CCN(CC(=O)[O-])CCN(CC(=O)[O-])CCN(CC(=O)[O-])CC1.[Gd+3].[Gd+3].[Gd+3].[Gd+3]` [Example 3, Tetragadolinium {4,10-bis(carboxylatomethyl)-7-[15-(2-methoxyethyl)-10,10-bis[({[(2-methoxyethyl){[4,7,10-tris(carboxylatomethyl)-1,4,7,10-tetraazacyclododecan-1-yl]-acetyl}amino]acetyl}amino)methyl]-7,13,16-trioxo-5-{[4,7,10-tris(carboxylatomethyl)-1,4,7,10-tetraazacyclododecan-1-yl]acetyl}-2-oxa-5,8,12,15-tetraazaheptadecan-17-yl]-1,4,7,10-tetraazacyclododecan-1-yl}acetate] showed a r1 human plasma of 10.9 ± 0.1 L/mmol/s and a r1 water of 9.5 ± 0.1 L/mmol/s. The Solubility in data set [2] is listed as >1000 mg/100 mL. In addition, in data set [3], the r1 human plasma stood at 11.7 L/mmol/s and the r1 water was 10.3 L/mmol/s. In addition, the “Diffusion half-live (20 kDa)” value in data set [4] worked out at 11.6 h.
In data set [1], `CCOCCN(CC(=O)NCC(CNC(=O)CN(CCOCC)C(=O)CN1CCN(CC(=O)[O-])CCN(CC(=O)[O-])CCN(CC(=O)[O-])CC1)(CNC(=O)CN(CCOCC)C(=O)CN1CCN(CC(=O)[O-])CCN(CC(=O)[O-])CCN(CC(=O)[O-])CC1)CNC(=O)CN(CCOCC)C(=O)CN1CCN(CC(=O)[O-])CCN(CC(=O)[O-])CCN(CC(=O)[O-])CC1)C(=O)CN1CCN(CC(=O)[O-])CCN(CC(=O)[O-])CCN(CC(=O)[O-])CC1.[Gd+3].[Gd+3].[Gd+3].[Gd+3]` [Example 4, Tetragadolinium {4,10-bis(carboxylatomethyl)-7-[16-(2-ethoxyethyl)-11,11-bis[({[(2-ethoxyethyl){[4,7,10-tris(carboxylatomethyl)-1,4,7,10-tetraazacyclododecan-1-yl]-acetyl}amino]acetyl}amino)methyl]-8,14,17-trioxo-6-{[4,7,10-tris(carboxylatomethyl)-1,4,7,10-tetraazacyclododecan-1-yl]acetyl}-3-oxa-6,9,13,16-tetraazaoctadecan-18-yl]-1,4,7,10-tetraazacyclododecan-1-yl}acetate] had a r1 human plasma of 11.3 ± 0.01 L/mmol/s and a r1 water of 10.1 ± 0.2 L/mmol/s. The Solubility in data set [2] is listed as >1000 mg/100 mL. In data set [3], this molecule came in with a r1 human plasma of 12.5 L/mmol/s and a r1 water of 11.1 L/mmol/s. In addition, the “Diffusion half-live (20 kDa)” value in data set [4] turned out to be 10.1 h.
In data set [1], `CC(C)N(CC(=O)NCC(CNC(=O)CN(C(=O)CN1CCN(CC(=O)[O-])CCN(CC(=O)[O-])CCN(CC(=O)[O-])CC1)C(C)C)(CNC(=O)CN(C(=O)CN1CCN(CC(=O)[O-])CCN(CC(=O)[O-])CCN(CC(=O)[O-])CC1)C(C)C)CNC(=O)CN(C(=O)CN1CCN(CC(=O)[O-])CCN(CC(=O)[O-])CCN(CC(=O)[O-])CC1)C(C)C)C(=O)CN1CCN(CC(=O)[O-])CCN(CC(=O)[O-])CCN(CC(=O)[O-])CC1.[Gd+3].[Gd+3].[Gd+3].[Gd+3]` [Example 5, Tetragadolinium [4,10-bis(carboxylatomethyl)-7-{3,13-diisopropyl-8,8-bis({[(isopropyl-{[4,7,10-tris(carboxylatomethyl)-1,4,7,10-tetraazacyclododecan-1-yl]acetyl}amino)-acetyl]amino}methyl)-2,5,11,14-tetraoxo-15-[4,7,10-tris(carboxylatomethyl)-1,4,7,10-tetraazacyclododecan-1-yl]-3,6,10,13-tetraazapentadec-1-yl}-1,4,7,10-tetraazacyclo-dodecan-1-yl]acetate] came in with a r1 human plasma of 11.6 ± 0.4 L/mmol/s and a r1 water of 10.2 ± 0.1 L/mmol/s. The Solubility in data set [2] is >1000 mg/100 mL. Also, in data set [3], the r1 human plasma is 13.1 L/mmol/s and the r1 water is 11.1 L/mmol/s. The “Diffusion half-live (20 kDa)” value in data set [4] was found to be 10.8 h.
Consider `O=C([O-])CN1CCN(CC(=O)[O-])CCN(CC(=O)N(CC(=O)NCC(CNC(=O)CN(C(=O)CN2CCN(CC(=O)[O-])CCN(CC(=O)[O-])CCN(CC(=O)[O-])CC2)C2CC2)(CNC(=O)CN(C(=O)CN2CCN(CC(=O)[O-])CCN(CC(=O)[O-])CCN(CC(=O)[O-])CC2)C2CC2)CNC(=O)CN(C(=O)CN2CCN(CC(=O)[O-])CCN(CC(=O)[O-])CCN(CC(=O)[O-])CC2)C2CC2)C2CC2)CCN(CC(=O)[O-])CC1.[Gd+3].[Gd+3].[Gd+3].[Gd+3]` [Example 7, Tetragadolinium [4,10-bis(carboxylatomethyl)-7-{3,13-dicyclopropyl-8,8-bis({[(cyclopropyl{[4,7,10-tris(carboxylatomethyl)-1,4,7,10-tetraazacyclododecan-1-yl]acetyl}-amino)acetyl]amino}methyl)-2,5,11,14-tetraoxo-15-[4,7,10-tris(carboxylatomethyl)-1,4,7,10-tetraazacyclododecan-1-yl]-3,6,10,13-tetraazapentadec-1-yl}-1,4,7,10-tetra-azacyclododecan-1-yl]acetate], for which the r1 human plasma in data set [1] worked out at 11.1 ± 0.1 L/mmol/s; in data set [3] it was 12.1 L/mmol/s. Moreover, the r1 water in data set [1] is 9.7 ± 0.1 L/mmol/s; in data set [3], 10.6 L/mmol/s. The Solubility in data set [2] is >1000 mg/100 mL. The “Diffusion half-live (20 kDa)” value in data set [4] came out at 14.0 h.
